Experimental data as given in ChEMBL document CHEMBL1201862, “PubChem BioAssay data set” (2004).
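A five-concentration, 48-hour dose response in 96-well plates underlies each endpoint, interpolated linearly between surrounding concentrations. The concentration for 50% growth inhibition is given as GI50.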 Activity calls are given as the source filed them. Rule as the data show it: active = GI50 up to about 1.1 µM and inactive = higher.

What was measured:
Assay in all cases: NCI-60 cell line screen, 48 h
BT-549 = tested on: BT-549
T47D = tested on: T47D
MDA-N = tested on: MDA-N
LXFL 529 = tested on: LXFL 529
SNB-78 = tested on: SNB-78
KM-20L2 = tested on: KM-20L2
DMS-273 = tested on: DMS-273
XF498 = tested on: XF498

Q: For CCCCCOC(=O)c1cc2cc(CCl)ccc2oc1=O, which GI50 (BT-549) is on record?
A: 11.9 µM (inactive)

Q: What about the GI50 (T47D) of the same molecule?
A: 4.55 µM (inactive)

Q: What about the GI50 (MDA-N) of the same molecule?
A: 2.92 µM (inactive)

Q: For S=C1C(CCCOCc2ccccc2)C2CCCC23CC2(CCN13)OCCS2 (stereo not given), which GI50 (T47D) is on record?
A: > 10 µM (inactive)

Q: What about the GI50 (MDA-N) of the same molecule?
A: > 10 µM (inactive)

Q: For O=C1/C(=C2/CCCN2)C(c2ccc[nH]2)=NN1c1ccccc1, which GI50 (BT-549) is on record?
A: > 100 µM (inactive)

Q: What about the GI50 (T47D) of the same molecule?
A: > 100 µM (inactive)

Q: What about the GI50 (MDA-N) of the same molecule?
A: > 100 µM (inactive)

Q: What does the source list for CC1(C)CC(=O)c2c(nc3c(ccc4ccccc43)c2-c2ccc(NC(=O)CCCCCCCCC(=O)Nc3ccc(-c4c5c(nc6c4ccc4ccccc46)CC(C)(C)CC5=O)cc3)cc2)C1?
A: GI50 (T47D): > 100 µM (inactive); GI50 (MDA-N): > 100 µM (inactive)

Q: How did the GI50 (BT-549) turn out when CCC(c1c[nH]c2ccc(Br)cc12)c1c[nH]c2ccc(Br)cc12 was run?
A: 10.3 µM (inactive)

Q: What about the GI50 (T47D) of the same molecule?
A: 2.3 µM (inactive)

Q: What about the GI50 (MDA-N) of the same molecule?
A: 4.33 µM (inactive)

Q: With Cc1ccc(SC[C@@]2(C(F)F)NC(=O)NC2=O)cc1 as the molecule, how does the GI50 (BT-549) read?
A: > 100 µM (inactive)

Q: What about the GI50 (T47D) of the same molecule?
A: > 100 µM (inactive)

Q: What does the source list for CCOC(NC(=O)CC)(C(F)(F)F)C(F)(F)F?
A: GI50 (BT-549): > 100 µM (inactive); GI50 (T47D): > 100 µM (inactive); GI50 (MDA-N): > 100 µM (inactive)

Q: For O=C(NC(OCc1ccccc1)(C(F)(F)F)C(F)(F)F)OCc1ccccc1, which GI50 (BT-549) is on record?
A: 15.4 µM (inactive)

Q: What about the GI50 (T47D) of the same molecule?
A: 15.7 µM (inactive)

Q: What about the GI50 (MDA-N) of the same molecule?
A: 15.2 µM (inactive)

Q: With O=C1OC(C2Cc3ccc4ccccc4c3C2=O)c2ccccc21 (stereo not given) as the molecule, how does the GI50 (BT-549) read?
A: 37 µM (inactive)

Q: What about the GI50 (T47D) of the same molecule?
A: 63 µM (inactive)

Q: And the GI50 (MDA-N)?
A: 57.5 µM (inactive)

Q: How did the GI50 (T47D) turn out when O=C(OCc1c(-c2ccccc2)nn(-c2ccccc2)c1COC(=O)Oc1ccccc1)Oc1ccccc1 was run?
A: > 100 µM (inactive)

Q: And the GI50 (MDA-N)?
A: > 100 µM (inactive)

Q: Which GI50 (BT-549) does the source give for O=C1N/C(=N/N=C\c2ccccc2)N/C1=C/c1ccc(Cl)cc1 here?
A: 16.5 µM (inactive)

Q: What about the GI50 (T47D) of the same molecule?
A: 21 µM (inactive)

Q: What about the GI50 (MDA-N) of the same molecule?
A: 34.3 µM (inactive)

Q: For CCOC(=O)/C(C(=O)NC(C)C)=C(/N)N1CCOCC1, which GI50 (BT-549) is on record?
A: > 100 µM (inactive)

Q: What about the GI50 (T47D) of the same molecule?
A: > 100 µM (inactive)

Q: And the GI50 (MDA-N)?
A: > 100 µM (inactive)

Q: What does the source list for COc1cc(C2SCC(=O)N2c2cc(Cl)c(Cl)cc2Cl)cc(OC)c1OC (stereo not given)?
A: GI50 (BT-549): 25.4 µM (inactive); GI50 (MDA-N): 25.3 µM (inactive)

Q: Which GI50 (BT-549) does the source give for CNC1(c2cc3ccccc3s2)CCCCC1 here?
A: 67 µM (inactive)

Q: What about the GI50 (MDA-N) of the same molecule?
A: 19.9 µM (inactive)

Q: How did the GI50 (BT-549) turn out when C=CCOCn1cc(F)c(=O)[nH]c1=O was run?
A: > 100 µM (inactive)

Q: And the GI50 (T47D)?
A: > 100 µM (inactive)

Q: What about the GI50 (MDA-N) of the same molecule?
A: > 100 µM (inactive)

Q: What does the source list for NNC(=S)N/N=C(\CCCC(=O)NCCc1ccccc1)CC(=O)c1ccccc1?
A: GI50 (LXFL 529): > 100 µM (inactive); GI50 (SNB-78): > 100 µM (inactive); GI50 (KM-20L2): > 100 µM (inactive)

Q: COc1ccc(C[C@H](N)C(=O)N2C[C@@H](CO)C[C@@H](n3ccc(=O)[nH]c3=O)C2)cc1 was tested. Which GI50 (DMS-273) did it give?
A: > 100 µM (inactive)

Q: And the GI50 (LXFL 529)?
A: > 100 µM (inactive)

Q: What about the GI50 (KM-20L2) of the same molecule?
A: > 100 µM (inactive)

Q: Which GI50 (XF498) does the source give for Cc1cc(N(CCC#N)CCC#N)ccc1/C=C/C(=O)Nc1ccccc1Cl here?
A: > 100 µM (inactive)

Q: What about the GI50 (DMS-273) of the same molecule?
A: > 100 µM (inactive)

Q: And the GI50 (LXFL 529)?
A: > 100 µM (inactive)

Q: And the GI50 (KM-20L2)?
A: > 100 µM (inactive)

Q: Cc1cccc(=O)c([O-])c1.Cc1cccc(=O)c([O-])c1.[Bi+3].[Cl-] was tested. Which GI50 (DMS-273) did it give?
A: 7.29 µM (inactive)

Q: What about the GI50 (SNB-78) of the same molecule?
A: 24 µM (inactive)

Q: And the GI50 (KM-20L2)?
A: 2.99 µM (inactive)

Q: With CCCc1ccc(NCc2cc(OC)c(OC)c(OC)c2)cc1 as the molecule, how does the GI50 (XF498) read?
A: 18.9 µM (inactive)

Q: What about the GI50 (LXFL 529) of the same molecule?
A: 17 µM (inactive)

Q: What about the GI50 (SNB-78) of the same molecule?
A: 56.9 µM (inactive)

Q: What about the GI50 (KM-20L2) of the same molecule?
A: 28.6 µM (inactive)

Q: CCc1nnc(S)n1/N=C\c1ccc(-c2ccccc2Cl)o1 was tested. Which GI50 (BT-549) did it give?
A: 26.4 µM (inactive)

Q: What about the GI50 (T47D) of the same molecule?
A: 25.1 µM (inactive)

Q: And the GI50 (MDA-N)?
A: 20.5 µM (inactive)

Q: How did the GI50 (DMS-273) turn out when CSCCC(NC(=O)C(Cc1ccccc1)NC(=O)CNC(=O)CNC(=O)C(N)Cc1ccc(O)cc1)C(=O)O (stereo not given) was run?
A: > 100 µM (inactive)

Q: And the GI50 (SNB-78)?
A: > 100 µM (inactive)

Q: What about the GI50 (KM-20L2) of the same molecule?
A: > 20.3 µM (inactive)

Q: With C[C@@H]1OC(=O)/C(=C\N(C)C)[C@H]2CC(=O)N(CCc3cn(S(=O)(=O)C(F)(F)F)c4ccccc34)C[C@H]12 as the molecule, how does the GI50 (BT-549) read?
A: > 100 µM (inactive)

Q: What about the GI50 (T47D) of the same molecule?
A: > 100 µM (inactive)

Q: What about the GI50 (MDA-N) of the same molecule?
A: > 100 µM (inactive)

Q: For O=C1CSC(c2ccc(Cl)cc2)N1c1ccc(Oc2ccc(Cl)cc2)c(Cl)c1 (stereo not given), which GI50 (BT-549) is on record?
A: 15 µM (inactive)

Q: And the GI50 (T47D)?
A: 10.7 µM (inactive)

Q: What about the GI50 (MDA-N) of the same molecule?
A: 14.5 µM (inactive)

Q: How did the GI50 (BT-549) turn out when CCOP(=O)(C/C=C/Cn1ncc(=O)[nH]c1=O)OCC was run?
A: > 100 µM (inactive)

Q: What about the GI50 (T47D) of the same molecule?
A: > 100 µM (inactive)

Q: What about the GI50 (MDA-N) of the same molecule?
A: > 100 µM (inactive)

Q: How did the GI50 (BT-549) turn out when CCOC(=O)C1(C/C=C\CBr)CCCCCCC1=O (stereo not given) was run?
A: > 100 µM (inactive)

Q: And the GI50 (T47D)?
A: > 100 µM (inactive)

Q: And the GI50 (MDA-N)?
A: > 100 µM (inactive)

Q: Which GI50 (T47D) does the source give for COc1nc2ccc(COc3ccc(C(=O)NC(CCC(=O)O)C(=O)O)cc3)cc2nc1OC (stereo not given) here?
A: > 10 µM (inactive)

Q: And the GI50 (MDA-N)?
A: > 10 µM (inactive)

Q: With O=C(O)CN1CCSc2ccccc2CN(CC(=O)O)CCSc2ccccc2C1 as the molecule, how does the GI50 (DMS-273) read?
A: > 100 µM (inactive)

Q: And the GI50 (LXFL 529)?
A: > 100 µM (inactive)

Q: What about the GI50 (SNB-78) of the same molecule?
A: > 100 µM (inactive)

Q: And the GI50 (KM-20L2)?
A: > 100 µM (inactive)

Q: Which results are given for C(/C=N/c1ccccc1)=C(/Nc1ccccc1)c1ccc2ccccc2c1?
A: GI50 (BT-549): 1.08 µM (active); GI50 (T47D): 2.36 µM (inactive)

Q: How did the GI50 (BT-549) turn out when CCOC(=O)c1ccc2c(=O)n3c(C(=O)OCC)ccc3c(=O)n12 was run?
A: > 100 µM (inactive)

Q: What about the GI50 (T47D) of the same molecule?
A: > 100 µM (inactive)

Q: And the GI50 (MDA-N)?
A: > 100 µM (inactive)
